pIC50: −log10 of the molar value.
Molecular target: T1, FXR ligand binding domain (Homo sapiens, UniProt Q96RI1)
T1 sequence (Q96RI1 1-486): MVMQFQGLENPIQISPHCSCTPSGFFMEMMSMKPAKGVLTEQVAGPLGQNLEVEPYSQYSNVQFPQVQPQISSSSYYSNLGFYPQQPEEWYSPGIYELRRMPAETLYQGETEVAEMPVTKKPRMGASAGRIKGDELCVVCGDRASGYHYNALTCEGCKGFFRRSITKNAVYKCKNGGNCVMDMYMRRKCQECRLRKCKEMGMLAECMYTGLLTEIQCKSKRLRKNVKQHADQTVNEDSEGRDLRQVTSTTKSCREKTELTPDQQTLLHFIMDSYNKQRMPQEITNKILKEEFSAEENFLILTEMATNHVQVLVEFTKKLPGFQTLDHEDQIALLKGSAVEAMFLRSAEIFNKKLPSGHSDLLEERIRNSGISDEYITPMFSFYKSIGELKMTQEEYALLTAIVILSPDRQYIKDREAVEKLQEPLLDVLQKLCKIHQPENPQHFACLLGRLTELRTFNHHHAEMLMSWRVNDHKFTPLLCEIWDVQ
Experiment: Radioligand binding assay (radioligand displacement, scintillation proximity)
Conditions: GST-FXR LBD fusion protein on SPA beads, radioligand 2,N-dicyclohexyl-2-[2-(2,4 dimethoxy-phenyl)-benzoimidazol-1-yl]-acetamide, RT 30 minutes
Method: The following tests were carried out in order to determine the activity of the compounds of formula I. Background information on the binding assay can be found in: Nichols J S et al. “Development of a scintillation proximity assay for peroxisome proliferator-activated receptor gamma ligand binding domain”, (1998) Anal. Biochem. 257: 112-119.
Bacterial and mammalian expression vectors were constructed to produce glutathione-s-transferase (GST) and Gal4 DNA binding domain (GAL) proteins fused to the ligand binding domain (LBD) of human FXR (aa 193-473). To accomplish this, the portions of the sequences encoding the FXR LBD were amplified by polymerase chain reaction (PCR) from a full-length clone by PCR and then subcloned into the plasmid vectors. The final clone was verified by DNA sequence analysis.
The induction, expression, and subsequent purification of GST-LBD fusion protein was performed in E. coli strain BL21(pLysS) cells by standard methods (Current Protocols in Molecular Biology, Wiley Press, ed. Ausubel et al).
Radioligand Binding Assay
Binding of test substances to the FXR ligand binding domain was assessed in a radioligand displacement assay. The assay was performed in a buffer consisting of 50 mM Hepes, pH 7.4, 10 mM NaCl, 5 mM MgCl2. For each reaction well in a 96-well plate, 40 nM of GST-FXR LBD fusion protein was bound to 10 μg glutathione ytrium silicate SPA beads (Pharmacia Amersham) in a final volume of 50 μl by shaking. A radioligand (eg. 40 nM) of 2,N-dicyclohexyl-2-[2-(2,4 dimethoxy-phenyl)-benzoimidazol-1-yl]-acetamide) was added, and the reaction incubated at RT for 30 minutes in the presence of test compounds followed by scintillation proximity counting. All binding assays were performed in 96-well plates and the amount of bound ligand was measured on a Packard TopCount using OptiPlates (Packard). Dose response curves were performed within a range of concentration from 6×10^−9 M to 2.5×10^−5 M.

| SMILES | pIC50 |
| --- | --- |
| O=C(O)c1ccc(COC(c2c3ccccc3nn2-c2ccc(Cl)cc2)C2CCCCC2)cc1 (racemic) [Example 18] | 6.44 |
| O=C(Nc1ccc(OC2(C(=O)O)CC2)cc1F)[C@H](c1c2c(nn1-c1ccc(Cl)cc1)CCCC2)C1CCCCC1 [Example 23, (−)-1-(4-{2-[2-(4-Chloro-phenyl)-4,5,6,7-tetrahydro-2H-indazol-3-yl]-2-cyclohexyl-acetylamino}-3-fluoro-phenoxy)-cyclopropanecarboxylic acid] | 7.68 |
| O=C(Nc1ccc(OC2(C(=O)O)CC2)cc1F)C(c1c2c(nn1-c1ccc(Cl)cc1)CCCC2)C1CCCCC1 (racemic) [Example 16, [rac]-1-(4-{2-[2-(4-Chloro-phenyl)-4,5,6,7-tetrahydro-2H-indazol-3-yl]-2-cyclohexyl-acetylamino}-3-fluoro-phenoxy)-cyclopropanecarboxylic acid] | 6.65 |
| O=C(NC1CCCCC1)C(c1c2c(nn1-c1ccc(Cl)cc1)CCCC2)C1CCCCC1 (centres unmarked) [Example 6, 2-[2-(4-Chloro-phenyl)-4,5,6,7-tetrahydro-2H-indazol-3-yl]-2,N-dicyclohexyl-acetamide] | 6.81 |
| O=C(O)c1ccc(NC(=O)C(c2c3c(nn2-c2ccc(Cl)cc2)CCCC3)C2CCCCC2)c(C(F)(F)F)c1 (racemic) [Example 20, [rac]-4-{2-[2-(4-Chloro-phenyl)-4,5,6,7-tetrahydro-2H-indazol-3-yl]-2-cyclohexyl-acetylamino}-3-trifluoromethyl-benzoic acid] | 6.48 |
| N#Cc1ccc(OCC(c2c3c(nn2-c2ccc(Cl)cc2)CCCC3)C2CCCCC2)c(F)c1 (racemic) [Example 37, [rac]-4-{2-[2-(4-Chloro-phenyl)-4,5,6,7-tetrahydro-2H-indazol-3-yl]-2-cyclohexyl-ethoxy}-3-fluoro-benzonitrile] | 5.46 |
| O=C(O)c1ccc(NC(=O)C(c2c3c(nn2-c2ccc(Cl)cc2)CCCC3)C2CCCCC2)cc1 (centres unmarked) [Example 7, 4-{2-[2-(4-Chloro-phenyl)-4,5,6,7-tetrahydro-2H-indazol-3-yl]-2-cyclohexyl-acetylamino}-benzoic acid] | 6.10 |
| O=C(NC1CCCCC1)C(c1ccccc1)c1c2ccccc2nn1-c1ccccc1 (centres unmarked) [Example 3, N-Cyclohexyl-2-phenyl-2-(2-phenyl-2H-indazol-3-Y1)-acetamide] | 5.13 |
| Fc1cc(-c2nnn[nH]2)ccc1OCC(c1c2c(nn1-c1ccc(Cl)cc1)CCCC2)C1CCCCC1 (racemic) [Example 38, [rac]-2-(4-Chloro-phenyl)-3-{1-cyclohexyl-2-[2-fluoro-4-(1H-tetrazol-5-yl)-phenoxy]-ethyl}-4,5,6,7-tetrahydro-2H-indazole] | 6.96 |
| Fc1cc2nn(-c3ccc(Cl)cc3)c(C(COc3ccc(-c4nnn[nH]4)cc3F)C3CCCCC3)c2cc1F (racemic) [Example 36, [rac]-2-(4-Chloro-phenyl)-3-{1-cyclohexyl-2-[2-fluoro-4-(2H-tetrazol-5-yl)-phenoxy]-ethyl}-5,6-difluoro-2H-indazole] | 6.40 |
| Cc1cc(C(=O)O)cc(C)c1OC(c1c2cc(F)c(F)cc2nn1-c1ccc(Cl)cc1)C1CCCCC1 (racemic) [Example 34, [rac]-4-{[2-(4-Chloro-phenyl)-5,6-difluoro-2H-indazol-3-yl]-cyclohexyl-methoxy}-3,5-dimethyl-benzoic acid] | 5.67 |
| O=C(O)c1ccc(NC(=O)C(c2c3c(nn2-c2ccc(Cl)cc2)CCCC3)C2CCCCC2)c(Cl)c1 (racemic) [Example 62, [rac]-3-Chloro-4-{2-[2-(4-chloro-phenyl)-4,5,6,7-tetrahydro-2H-indazol-3-yl]-2-cyclohexyl-acetylamino}-benzoic acid] | 7.10 |
| O=C(O)c1ccc(COC(c2c3c(nn2-c2ccc(Cl)cc2)CCCC3)C2CCCCC2)cc1 (racemic) [Example 28, [rac]-4-{[2-(4-Chloro-phenyl)-4,5,6,7-tetrahydro-2H-indazol-3-yl]-cyclohexyl-methoxymethyl}-benzoic acid] | 6.29 |
| Cc1cc(-c2nnn[nH]2)cc(C)c1OCC(c1c2ccccc2nn1-c1ccc(Cl)cc1)C1CCCCC1 (racemic) [Example 52, [rac]-2-(4-Chloro-phenyl)-3-{1-cyclohexyl-2-[2,6-dimethyl-4-(2H-tetrazol-5-yl)-phenoxy]-ethyl}-2H-indazole] | 8.40 |
| O=C(O)c1ccc(SCC(c2c3c(nn2-c2ccc(Cl)cc2)CCCC3)C2CCCCC2)cc1 (racemic) [Example 63, [rac]-4-{2-[2-(4-Chloro-phenyl)-4,5,6,7-tetrahydro-2H-indazol-3-yl]-2-cyclohexyl-ethylsulfanyl}-benzoic acid] | 6.70 |
| O=C(O)C1(Oc2ccc(OC(c3c4cc(F)c(F)cc4nn3-c3ccc(Cl)cc3)C3CCCCC3)cc2)CC1 (racemic) [Example 56, [rac]-1-(4-{[2-(4-Chloro-phenyl)-5,6-difluoro-2H-indazol-3-yl]-cyclohexyl-methoxy}-phenoxy)-cyclopropanecarboxylic acid] | 6.77 |
| Fc1cc2nn(-c3ccc(Cl)cc3)c(C(OCc3ccc(-c4nnn[nH]4)cc3)C3CCCCC3)c2cc1F (racemic) [Example 49, [rac]-2-(4-Chloro-phenyl)-3-{cyclohexyl-[4-(2H-tetrazol-5-yl)-benzyloxy]-methyl}-5,6-difluoro-2H-indazole] | 8.40 |
| O=C(NC1CCCC1)C(O)(c1c2c(nn1-c1ccc(Cl)cc1)CCCC2)C1CCCCC1 (centres unmarked) [Example 9, 2-[2-(4-Chloro-phenyl)-4,5,6,7-tetrahydro-2H-indazol-3-yl]-2-cyclohexyl-N-cyclopentyl-2-hydroxy-acetamide] | 5.31 |
| O=C(NC1CCCCC1)C(c1c2ccccc2nn1-c1ccccc1)C1CCCCC1 (centres unmarked) [Example 1, 2,N-Dicyclohexyl-2-(2-phenyl-2H-indazol-3-yl)-acetamide] | 5.72 |
| O=C(NC1CCCC1)C(c1c2c(nn1-c1ccc(Cl)cc1)CCCC2)C1CCCCC1 (centres unmarked) [Example 8, 2-[2-(4-Chloro-phenyl)-4,5,6,7-tetrahydro-2H-indazol-3-yl]-2-cyclohexyl-N-cyclopentyl-acetamide] | 5.97 |
| Clc1ccc(-n2nc3c(c2C(CNc2ccc(-c4nnn[nH]4)cc2)C2CCCCC2)CCCC3)cc1 (racemic) [Example 65, [rac]-{2-[2-(4-Chloro-phenyl)-4,5,6,7-tetrahydro-2H-indazol-3-yl]-2-cyclohexyl-ethyl}-[4-(1H-tetrazol-5-yl)-phenyl]-amine] | 8.40 |
| O=C(O)c1ccc(NC(=O)C(O)(c2c3c(nn2-c2ccc(Cl)cc2)CCCC3)C2CCCCC2)c(F)c1 (centres unmarked) [Example 5, 4-{2-[2-(4-Chloro-phenyl)-4,5,6,7-tetrahydro-2H-indazol-3-yl]-2-cyclohexyl-2-hydroxy-acetylamino}-3-fluoro-benzoic acid] | 5.69 |
| Clc1ccc(-n2nc3ccccc3c2C(OCc2ccc(-c3nnn[nH]3)cc2)C2CCCCC2)cc1 (racemic) [Example 47, [rac]-2-(4-Chloro-phenyl)-3-{cyclohexyl-[4-(2H-tetrazol-5-yl)-benzyloxy]-methyl}-2H-indazole] | 8.70 |
| O=C(O)c1ccc(OCC(c2c3c(nn2-c2ccc(Cl)cc2)CCCC3)C2CCCCC2)nc1 (racemic) [Example 64, [rac]-6-{2-[2-(4-Chloro-phenyl)-4,5,6,7-tetrahydro-2H-indazol-3-yl]-2-cyclohexyl-ethoxy}-nicotinic acid] | 6.60 |
| N#Cc1ccc(OC(c2c3cc(F)c(F)cc3nn2-c2ccc(Cl)cc2)C2CCCCC2)c(F)c1 (racemic) [Example 35, [rac]-4-{[2-(4-Chloro-phenyl)-5,6-difluoro-2H-indazol-3-yl]-cyclohexyl-methoxy}-3-fluoro-benzonitrile] | 6.06 |
| O=C(Nc1ccc(-c2nnn[nH]2)cc1F)C(c1c2c(nn1-c1ccc(Cl)cc1)CCCC2)C1CCCCC1 (racemic) [Example 58, [rac]-2-[2-(4-Chloro-phenyl)-4,5,6,7-tetrahydro-2H-indazol-3-yl]-2-cyclohexyl-N-[2-fluoro-4-(1H-tetrazol-5-yl)-phenyl]-acetamide] | 7.28 |
